Laboratory results from publication PMC10893631, “Receptor-based pharmacophore modeling, molecular docking, synthesis and biological evaluation of novel VEGFR-2, FGFR-1, and BRAF multi-kinase inhibitors” (BMC Chemistry, 2024).

Legend:
Test in all cases: NCI SRB growth inhibition (single dose 10 µM / five-dose)
Assay type in all cases: cell-based, human
CCRF-CEM = details: Homo sapiens; CCRF-CEM (Leukemia), 10 µM; read-out: GI%
Outline: (§1)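 SRB protein stain of fixed cells; compounds tested at one dose (10 µM) or five serial dilutions (10-fold or ½ log), diluted from DMSO stock. Cells plated 24 h before dosing, with a time-zero plate fixed in TCA. Percent growth derived from Tz, control and test absorbances; TGI taken where Ti = Tz.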

HT29 = details: Homo sapiens, HT-29; HT29 (Colon cancer), 10 µM; read-out: GI%
Outline: as §1

HOP-92 = details: Homo sapiens; HOP-92 (Non-small cell lung cancer), 10 µM; read-out: GI%
Outline: as §1

SK-MEL-28 = details: Homo sapiens; SK-MEL-28 (Melanoma), 10 µM; read-out: GI%
Outline: as §1

CAKI-1 = details: Homo sapiens; CAKI-1 (Renal cancer), 10 µM; read-out: GI%
Outline: as §1

ACHN = details: Homo sapiens; ACHN (Renal cancer), 10 µM; read-out: GI%
Outline: as §1

EKVX = details: Homo sapiens; EKVX (Non-small cell lung cancer), 10 µM; read-out: GI%
Outline: as §1

SF-295 = details: Homo sapiens; SF-295 (CNS cancer), 10 µM; read-out: GI%
Outline: as §1

SK-MEL-5 = details: Homo sapiens; SK-MEL-5 (Melanoma), 10 µM; read-out: GI%
Outline: as §1

NCI/ADR-RES = details: Homo sapiens; NCI/ADR-RES (Ovarian cancer), 10 µM; read-out: GI%
Outline: as §1

M14 = details: Homo sapiens; M14 (Melanoma), 10 µM; read-out: GI%
Outline: as §1

OVCAR-5 = details: Homo sapiens; OVCAR-5 (Ovarian cancer), 10 µM; read-out: GI%
Outline: as §1

MDA-MB-231/ATCC = details: Homo sapiens; MDA-MB-231/ATCC (Breast cancer), 10 µM; read-out: GI%
Outline: as §1

RXF 393 = details: Homo sapiens; RXF 393 (Renal cancer), 10 µM; read-out: GI%
Outline: as §1

HCC-2998 = details: Homo sapiens; HCC-2998 (Colon cancer), 10 µM; read-out: GI%
Outline: as §1

TK-10 = details: Homo sapiens; TK-10 (Renal cancer), 10 µM; read-out: GI%
Outline: as §1

MALME-3 M = details: Homo sapiens; MALME-3 M (Melanoma), 10 µM; read-out: GI%
Outline: as §1

MOLT-4 = details: Homo sapiens; MOLT-4 (Leukemia), 10 µM; read-out: GI%
Outline: as §1

SR = details: Homo sapiens; SR (Leukemia), 10 µM; read-out: GI%
Outline: as §1

A549/ATCC = details: Homo sapiens; A549/ATCC (Non-small cell lung cancer), 10 µM; read-out: GI%
Outline: as §1

SK-MEL-2 = details: Homo sapiens; SK-MEL-2 (Melanoma), 10 µM; read-out: GI%
Outline: as §1

BT-549 = details: Homo sapiens; BT-549 (Breast cancer), 10 µM; read-out: GI%
Outline: as §1

NCI-H226 = details: Homo sapiens; NCI-H226 (Non-small cell lung cancer), 10 µM; read-out: GI%
Outline: as §1

HS 578 T = details: Homo sapiens; HS 578 T (Breast cancer), 10 µM; read-out: GI%
Outline: as §1

786–0 = details: Homo sapiens; 786–0 (Renal cancer), 10 µM; read-out: GI%
Outline: as §1

UACC-257 = details: Homo sapiens; UACC-257 (Melanoma), 10 µM; read-out: GI%
Outline: as §1

Row | SMILES | inhibition at 10 µM (CCRF-CEM) [%] | inhibition at 10 µM (HT29) [%] | inhibition at 10 µM (HOP-92) [%] | inhibition at 10 µM (SK-MEL-28) [%] | inhibition at 10 µM (CAKI-1) [%] | inhibition at 10 µM (ACHN) [%] | inhibition at 10 µM (EKVX) [%] | inhibition at 10 µM (SF-295) [%] | inhibition at 10 µM (SK-MEL-5) [%] | inhibition at 10 µM (NCI/ADR-RES) [%] | inhibition at 10 µM (M14) [%] | inhibition at 10 µM (OVCAR-5) [%] | inhibition at 10 µM (MDA-MB-231/ATCC) [%] | inhibition at 10 µM (RXF 393) [%] | inhibition at 10 µM (HCC-2998) [%] | inhibition at 10 µM (TK-10) [%] | inhibition at 10 µM (MALME-3 M) [%] | inhibition at 10 µM (MOLT-4) [%] | inhibition at 10 µM (SR) [%] | inhibition at 10 µM (A549/ATCC) [%] | further results
1 | O=C(NN=Cc1cccc(O)c1)c1ccc2[nH]c(-c3ccccc3)nc2c1 [8b, N'-(3-Hydroxybenzylidene)-2-phenyl-1H-benzo[d]imidazole-5-carbohydrazide] | 54.4 | 16.4 | < 5 | < 5 | 9.41 | < 5 | 13.8 | < 5 | 10.9 | < 5 | < 5 | < 5 | 14.1 | < 5 | < 5 | < 5 | 39.7 | 31.5 | 36.8 | < 5 | inhibition at 10 µM (SK-MEL-2): < 5%; inhibition at 10 µM (BT-549): < 5%; inhibition at 10 µM (NCI-H226): < 5%; inhibition at 10 µM (HS 578 T): < 5%; inhibition at 10 µM (786–0): 5.43%; inhibition at 10 µM (UACC-257): < 5%
2 | COc1cccc(C=NNC(=O)c2ccc3[nH]c(-c4ccccc4)nc3c2)c1 [8c, N'-(3-Methoxybenzylidene)-2-phenyl-1H-benzo[d]imidazole-5-carbohydrazide] | 44.5 | 33.9 | < 5 | 20.4 | 10 | < 5 | 41.8 | 18.5 | 39 | 6.59 | 8.28 | < 5 | < 5 | 29.2 | < 5 | < 5 | 47.1 | 35.4 | 36.3 | 20.1 | inhibition at 10 µM (SK-MEL-2): 19.5%; inhibition at 10 µM (BT-549): < 5%; inhibition at 10 µM (NCI-H226): 19.3%; inhibition at 10 µM (HS 578 T): 20%; inhibition at 10 µM (786–0): 21.3%; inhibition at 10 µM (UACC-257): 14.6%
